Laboratory results: the METLIN SMRT retention time set (Domingo-Almenara et al. 2019)

Assay: gradient 5% acetonitrile 3 min, to 50% in 2 min, to 85% in 15 min, held 3 min, 100 µL/min
Conditions: column: Zorbax Extend-C18 2.1 x 50 mm; eluents: water / acetonitrile, 0.1% formic acid
In short: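 Data were gathered over 3 months by HPLC coupled to a quadrupole time-of-flight mass spectrometer, operated in positive and negative ionization mode. Mixtures of ~100 pure standards ran on a Zorbax Extend-C18 column (2.1 × 50 mm, 1.8 μm) at 100 μL/min, with water and acetonitrile each containing 0.1% formic acid and dead and dwell volumes of 40 μL and 900 μL. Retention time was read from adduct peaks picked by computer and checked manually.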

Structure (SMILES)	RP-LC retention time [s]
O=C(c1nc2ccccc2s1)N1CCN(Cc2nc(-c3ccc(F)cc3)cs2)CC1	882
Cn1c(=O)n(C)c2cc(S(=O)(=O)NCC(=O)O)ccc21	566
O=C(CN1CCN(Cc2ccc(F)cc2)C(=O)C1=O)N1CCN(c2cccc(Cl)c2)CC1	829
CCN(Cc1ccccc1)c1ccc(-c2noc(CN3CCOCC3)n2)cn1	826
CN1C(=O)COc2ccc(-c3csc(NC(=O)c4ccccc4)n3)cc21	926
Cc1ccc(CNC(=O)C2CCCN(c3nc4c(s3)c(C)nn4-c3ccc(C)cc3)C2)cc1 (stereo not drawn)	1210
COC(=O)c1ccc(NC(=O)CN2CCc3[nH]c4c(C)c(Cl)ccc4c(=O)c3C2)cc1	569
CC(C)NC(=O)c1ccc(OCC2CCCN(C(=O)c3ccccc3F)C2)cc1 (stereo not drawn)	830
CN(C)c1cccc(C(=O)Nc2cc(-c3ccccn3)no2)c1	776
COC(=O)c1cc(-c2cccc(N)c2)nc2ccccc12	749
O=C(NCC1(c2cccs2)CCOCC1)C(=O)Nc1ccc2c(c1)OCCO2	802
Cc1nc(-c2cn(C(C)C)c3ncccc23)sc1C(=O)NCc1ccccc1	995
COc1cc(C[C@H](C)N)c(OC)cc1I	705
O=C(NC1CC1)[C@@H]1C[C@H](Oc2ccccc2)CN1C(=O)CCCc1c[nH]c2ccccc12	834
CC1CCCCC1NC(=O)c1sc2ncccc2c1-n1cccc1 (stereo not drawn)	1260
CCc1sc(NC(=O)c2cc3c([nH]c2=O)CCCC3=O)nc1-c1ccc(Cc2ccccc2)cc1	1140
CCN1C(=O)COc2ccc(-c3noc(COc4ccc(Cl)cc4)n3)cc21	1110
CC(=O)NCc1csc(C2CCN(C(=O)COc3ccc(Cl)cc3)CC2)n1	708
CCCN1C(=O)COc2cc(-c3noc(C(=O)NCCCc4ccccc4)n3)ccc21	1090
O=C(O)Cc1sc(Nc2ccccc2Cl)nc1-c1ccccc1	942
COc1cc(NC(=O)[C@@H]2[C@H](c3cc(OC)c(OC)c(OC)c3)c3cc4c(cc3[C@H](O)[C@H]2CO)OCO4)cc(OC)c1	767
Cc1ccc(CNC(=O)Cn2cccc2-c2nnc(-c3ccccc3)o2)o1	882

Structure (SMILES)	RP-LC retention time [s]
CCOc1ccc(S(=O)(=O)N2CCC(C(=O)NCc3csc(-c4cccs4)n3)CC2)cc1	914
Cc1ccc(NC(=O)C2(C)Oc3cccnc3N(C)C2=O)cc1 (stereo not drawn)	845
Cc1csc(-c2cn(CC(=O)NCc3cccc(C(F)(F)F)c3)cn2)n1	716
Cc1cc2c(=O)n(CC(=O)Nc3cccc(Cl)c3)c3cccnc3n2n1	742
Cc1noc([C@@H]2CC(F)(F)CN2C(=O)c2cc(C)[nH]n2)n1	604
N#Cc1cccc(NC(=O)N2CCCC2c2nc(-c3ccc(F)cc3F)no2)c1 (stereo not drawn)	930
O=C(N[C@@H]1CN(c2ncccn2)C[C@H]1CO)c1ccc2ccccc2n1	654
O=C(Cn1cnc(-c2nc(-c3ccccc3)cs2)c1)Nc1cc(F)ccc1F	825
CCCN1C(=O)c2cc(S(=O)(=O)NCc3ccco3)ccc2Oc2cccnc21	952
CC(C)(C)c1nnc2n(c1=O)N=C(c1ccc(F)cc1)CS2	857
Cc1ccc2ncn(C3CCN(C(=O)Nc4ccc(C)c(Cl)c4)CC3)c(=O)c2c1	888
CCc1nc(OCC(=O)NCc2cccc(C)c2)c2c(C)c(C)oc2n1	947
CCOc1ccccc1-c1noc(-c2nnn(Cc3nc(-c4ccccc4OC)oc3C)c2C)n1	1070
CC(=O)N1CCc2ccc(C(=O)N3CCOCC3)cc21	602
Cn1ccc2c(cc(C(=O)N3CCN(c4ccc(F)cc4)CC3)n2C)c1=O	689
Cc1cc(N2CCCC2)n2nc(CN3CCN(c4ccc(F)cc4)CC3)nc2n1	634
O=C(NC1(c2nc(-c3ccccn3)no2)CCCCC1)c1ccccc1	848
CCOc1ccc(CC(=O)N2CCCn3nc(-c4cccc(C)c4)cc3C2)cc1	968
COc1ccc(-c2cc3nn(CC(=O)NCC4CCCO4)c(=O)n3c(C)n2)cc1 (stereo not drawn)	728
COc1ccc(NC(=O)c2cccc(F)c2)c2ccccc12	852
COC(=O)c1ccc(NC(=O)Cn2c(-c3cccnc3)nc3ccccc32)cc1	708
Cc1nc(-c2cn(-c3cccc(Cl)c3)nn2)no1	858

Structure (SMILES)	RP-LC retention time [s]
O=C(c1ccc2nsnc2c1)N1CCN(c2ccc(F)cc2)CC1	811
CC(C)c1nnc2n1CCN(C(=O)CC1CCCCC1)C2	699
CC1CCC(NC(=O)C(Cc2c[nH]c3ccccc23)NC(=O)C2CCC(C)CC2)CC1 (stereo not drawn)	1100
CCc1nc(-c2csc(S(=O)(=O)N3CCCC(C(=O)Nc4ccccc4C)C3)c2)no1 (stereo not drawn)	1010
Cc1cc2c(cc1C)N(CC(=O)Nc1ccc(F)cc1F)C(=O)CC(c1cccs1)=N2	1070
COc1ccc(-c2c(C)noc2NC(C)=O)cc1S(=O)(=O)NCc1ccc(C)cc1	784
Cn1ncc2c3ccccc3n(CC(=O)NCCCN3CCC(N4CCCCC4)CC3)c2c1=O	527
Cc1[nH]c(C)c(S(=O)(=O)N2CCC(C(=O)Nc3ccc(F)cc3)CC2)c1C(=O)N1CCCC1	710
Cc1ccc(C)c(-c2cc3c(=O)n(Cc4noc(-c5ccccc5)n4)ccn3n2)c1	860
C=CCn1c(=O)c2ccccc2n(Cc2nc(-c3ccccc3Br)no2)c1=O	1040
O=C(c1cccs1)N1CCCCC1c1nc(-c2ccncc2)no1 (stereo not drawn)	818
Cn1cc(S(=O)(=O)N2CCC(C(=O)Nc3cccc(F)c3)CC2)cc1C(=O)N1CCCC1	772
CCOc1ccccc1-c1nc(C2CC(=O)N(c3ccc(C)cc3)C2)no1 (stereo not drawn)	1090
Cc1ccc(-c2nc3cccnc3n2CCCNC(=O)Nc2ccc3c(c2)OCCO3)cc1	698
O=C(c1ccccc1Cl)N1CCC(COCc2ccccc2)CC1	979
Cn1nc(N2CCCC(NS(=O)(=O)c3cccc(Cl)c3)C2)ccc1=O (stereo not drawn)	775
O=C(CCCNC(=O)c1cc(-c2cccs2)[nH]n1)Nc1cccc2cccnc12	697
COCc1cc(=O)n(CC(=O)Nc2ccccc2)c(N2CCOCC2)n1	767
Cn1c(=O)c(N2CCN(S(=O)(=O)c3ccc(Cl)cc3)CC2)nc2ccncc21	674
CCc1noc(C2CCCCN2C(=O)c2c[nH]c3ccccc23)n1 (stereo not drawn)	647
Cc1ccc(C(C)NC(=O)c2ccc3c(c2)nc2n3CCN(C(C)C)C2=O)c(C)c1 (stereo not drawn)	786
COc1ccc(CNS(=O)(=O)c2ccc(-c3nnc(C4CCC4)o3)o2)cc1	873

Structure (SMILES)	RP-LC retention time [s]
CCc1nc2cc(-c3noc(Cc4cccc(F)c4)n3)ccc2o1	1050
CCOc1ccc(N2CC(c3nc(-c4ccccc4F)no3)CC2=O)cc1 (stereo not drawn)	967
COc1ccc(CC(=O)N2CCC3(C2)C(=O)Nc2ccc(OC)cc23)c(Cl)c1 (stereo not drawn)	768
CCc1cccc(NC(=O)N2CCCC2c2nc(-c3ccc(OC)cc3)no2)c1 (stereo not drawn)	925
COc1cc(NC(=O)Cn2nc3c4cc(F)ccc4ncn3c2=O)cc(OC)c1	697
Cc1cc(C)c2c(N3CCCCC3)nc(C(=O)NCCN3CCOCC3)nc2n1	550
CCOCN(C(=O)Cn1c(COC)nc2ccccc21)c1c(C)cccc1CC	874
COC(=O)c1ccc2nc(NC(=O)c3ccccc3S(C)(=O)=O)sc2c1	744
Cn1c(=O)c(-c2noc(C(=O)N3CCN(c4ccccn4)CC3)n2)nn(-c2ccccc2)c1=O	637
CC(C)NC(=O)Cn1ccn2nc(-c3ccc(F)cc3)c(CO)c2c1=O	682
CCc1ccc(-c2cn3ccn(-c4ccc(OC)c(OC)c4)c(=O)c3n2)cc1	840
COCCNC(=O)C1CCN(c2nc3ccc(-c4ccsc4)nc3s2)CC1	774
Nc1cc(C2CCN(C(=O)c3ccc(Cl)cc3)CC2)no1	705
Cn1ncc2c3ccccc3n(CCCC(=O)NCCCN3CCN(c4ccccc4)CC3)c2c1=O	672
O=C(CSc1cc(NCc2ccccc2Cl)ncn1)NC1CCCC1	794
CCOc1ccc(NC(=O)c2cc(S(=O)(=O)N3CCC(C)CC3)cn2C)cc1	1070
CCc1ccc(C(=O)NC2CCN(c3cc(-c4cccs4)[nH]n3)C2)cc1 (stereo not drawn)	730
C=CCN1C(=O)COc2ccc(-c3csc(NC(=O)/C=C/c4ccc(OCC)c(OC)c4)n3)cc21	1050
Cc1nn(C)c(C)c1CCC(=O)N1CCN(S(C)(=O)=O)CC1	543
CN(C)C(CNC(=O)Cc1cccs1)c1ccccc1Cl (stereo not drawn)	550
CC(=O)c1cccc(NC(=O)N2CCN(c3cnn4c(C)nnc4c3)CC2)c1	600
COc1cc(CNCCc2ccc(S(N)(=O)=O)cc2)ccc1Oc1nnnn1-c1ccccc1	672
